Assay results as given in PubChem BioAssay (NCI).
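Briefly, cells in 96-well plates were exposed to five compound concentrations for 48 h, and endpoints were estimated by linear interpolation. TGI is the concentration that stops growth completely.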

Assays:
Assay in all cases: DTP human tumour cell line panel, 48 h
NCI-H460 lung = test system: NCI-H460 lung
A498 renal = test system: A498 renal
UACC-62 melanoma = test system: UACC-62 melanoma
DU-145 prostate = test system: DU-145 prostate
SNB-19 CNS = test system: SNB-19 CNS
A549 NSCLC = test system: A549 NSCLC
T-47D breast = test system: T-47D breast
NCI-H522 lung = test system: NCI-H522 lung
ACHN renal = test system: ACHN renal
OVCAR-4 ovarian = test system: OVCAR-4 ovarian
CCRF-CEM leukemia = test system: CCRF-CEM leukemia
SK-MEL-28 melanoma = test system: SK-MEL-28 melanoma
PC-3 prostate = test system: PC-3 prostate
U251 CNS = test system: U251 CNS
NCI/ADR-RES ovarian = test system: NCI/ADR-RES ovarian
RXF 393 renal = test system: RXF 393 renal
MDA-MB-231 breast = test system: MDA-MB-231 breast
CAKI-1 renal = test system: CAKI-1 renal
HOP-62 NSCLC = test system: HOP-62 NSCLC
786-0 renal = test system: 786-0 renal
IGROV1 ovarian = test system: IGROV1 ovarian
M14 melanoma = test system: M14 melanoma
SN12C renal = test system: SN12C renal
MCF7 breast = test system: MCF7 breast
SK-MEL-2 melanoma = test system: SK-MEL-2 melanoma
TK-10 renal = test system: TK-10 renal
HCT-116 colon = test system: HCT-116 colon
MDA-N = test system: MDA-N
SNB-75 CNS = test system: SNB-75 CNS
OVCAR-8 ovarian = test system: OVCAR-8 ovarian
OVCAR-5 ovarian = test system: OVCAR-5 ovarian
HCC-2998 colon = test system: HCC-2998 colon
EKVX NSCLC = test system: EKVX NSCLC
HS 578T breast = test system: HS 578T breast
SF-268 CNS = test system: SF-268 CNS
HCT-15 colon = test system: HCT-15 colon
MDA-MB-435 = test system: MDA-MB-435
BT-549 breast = test system: BT-549 breast
KM12 colon = test system: KM12 colon
SF-295 CNS = test system: SF-295 CNS
HT29 colon = test system: HT29 colon
SW-620 colon = test system: SW-620 colon
SK-OV-3 ovarian = test system: SK-OV-3 ovarian
MALME-3M melanoma = test system: MALME-3M melanoma
RPMI-8226 leukemia = test system: RPMI-8226 leukemia
NCI-H226 lung = test system: NCI-H226 lung
COLO 205 colon = test system: COLO 205 colon
UACC-257 melanoma = test system: UACC-257 melanoma
OVCAR-3 ovarian = test system: OVCAR-3 ovarian
UO-31 renal = test system: UO-31 renal
NCI-H23 lung = test system: NCI-H23 lung
HOP-92 NSCLC = test system: HOP-92 NSCLC
HL-60(TB) leukemia = test system: HL-60(TB) leukemia
SK-MEL-5 melanoma = test system: SK-MEL-5 melanoma
MOLT-4 leukemia = test system: MOLT-4 leukemia
SF-539 CNS = test system: SF-539 CNS
K-562 leukemia = test system: K-562 leukemia
LOX IMVI melanoma = test system: LOX IMVI melanoma

For `CN(C)c1ccc(/C=C2\N=C(N/N=C/c3ccc(N(C)C)cc3)NC2=O)cc1`, the TGI (NCI-H460 lung) was > 100 µM, the TGI (A498 renal) was > 100 µM and the TGI (UACC-62 melanoma) was > 100 µM. The TGI (DU-145 prostate) was 96 µM, the TGI (SNB-19 CNS) was > 100 µM and the TGI (A549 NSCLC) was > 100 µM. The TGI (T-47D breast) was > 100 µM, the TGI (NCI-H522 lung) was > 100 µM and the TGI (ACHN renal) was > 100 µM. For the same compound, the TGI (OVCAR-4 ovarian) was > 100 µM, the TGI (CCRF-CEM leukemia) was > 100 µM and the TGI (SK-MEL-28 melanoma) was > 100 µM. The TGI (PC-3 prostate) was > 100 µM, the TGI (U251 CNS) was > 100 µM and the TGI (NCI/ADR-RES ovarian) was > 100 µM. The TGI (RXF 393 renal) was 53.8 µM, the TGI (MDA-MB-231 breast) was > 100 µM and the TGI (CAKI-1 renal) was > 100 µM. The TGI (HOP-62 NSCLC) was > 100 µM, the TGI (786-0 renal) was > 100 µM and the TGI (IGROV1 ovarian) was > 100 µM. For the same compound, the TGI (M14 melanoma) was > 100 µM, the TGI (SN12C renal) was > 100 µM and the TGI (MCF7 breast) was > 100 µM. For the same compound, the TGI (SK-MEL-2 melanoma) was > 100 µM, the TGI (TK-10 renal) was > 100 µM and the TGI (HCT-116 colon) was > 100 µM. For the same compound, the TGI (MDA-N) was > 100 µM, the TGI (SNB-75 CNS) was > 100 µM and the TGI (OVCAR-8 ovarian) was 72.7 µM. The TGI (OVCAR-5 ovarian) was > 100 µM, the TGI (HCC-2998 colon) was > 100 µM and the TGI (EKVX NSCLC) was > 100 µM. For the same compound, the TGI (HS 578T breast) was > 100 µM, the TGI (SF-268 CNS) was > 100 µM and the TGI (HCT-15 colon) was > 100 µM. For the same compound, the TGI (MDA-MB-435) was > 100 µM, the TGI (BT-549 breast) was > 100 µM and the TGI (KM12 colon) was > 100 µM. For the same compound, the TGI (SF-295 CNS) was > 100 µM, the TGI (HT29 colon) was > 100 µM and the TGI (SW-620 colon) was > 100 µM. The TGI (SK-OV-3 ovarian) was > 100 µM, the TGI (MALME-3M melanoma) was > 100 µM and the TGI (RPMI-8226 leukemia) was > 100 µM. For the same compound, the TGI (NCI-H226 lung) was > 100 µM, the TGI (COLO 205 colon) was > 100 µM and the TGI (UACC-257 melanoma) was > 100 µM. For the same compound, the TGI (OVCAR-3 ovarian) was > 100 µM, the TGI (UO-31 renal) was > 100 µM and the TGI (NCI-H23 lung) was > 100 µM. The TGI (HOP-92 NSCLC) was 98.4 µM, the TGI (HL-60(TB) leukemia) was > 100 µM and the TGI (SK-MEL-5 melanoma) was > 100 µM. The TGI (MOLT-4 leukemia) was > 100 µM.
`CCOC(=O)C(C)(C)Oc1ccc(Cl)cc1` was tested, and the TGI (NCI-H460 lung) was > 1000 µM, the TGI (A498 renal) was > 1000 µM and the TGI (UACC-62 melanoma) was > 1000 µM. For the same compound, the TGI (DU-145 prostate) was > 1000 µM, the TGI (SNB-19 CNS) was > 1000 µM and the TGI (A549 NSCLC) was > 1000 µM. The TGI (T-47D breast) was 682 µM, the TGI (NCI-H522 lung) was > 1000 µM and the TGI (ACHN renal) was > 1000 µM. For the same compound, the TGI (OVCAR-4 ovarian) was > 1000 µM, the TGI (SF-539 CNS) was > 1000 µM and the TGI (CCRF-CEM leukemia) was > 1000 µM. The TGI (SK-MEL-28 melanoma) was > 1000 µM, the TGI (PC-3 prostate) was > 1000 µM and the TGI (U251 CNS) was > 1000 µM. For the same compound, the TGI (NCI/ADR-RES ovarian) was > 1000 µM, the TGI (RXF 393 renal) was 433 µM and the TGI (MDA-MB-231 breast) was > 1000 µM. For the same compound, the TGI (CAKI-1 renal) was > 1000 µM, the TGI (HOP-62 NSCLC) was > 1000 µM and the TGI (786-0 renal) was > 1000 µM. The TGI (IGROV1 ovarian) was > 1000 µM, the TGI (M14 melanoma) was > 1000 µM and the TGI (SN12C renal) was > 1000 µM. For the same compound, the TGI (MCF7 breast) was > 1000 µM, the TGI (SK-MEL-2 melanoma) was 392 µM and the TGI (TK-10 renal) was > 1000 µM. For the same compound, the TGI (HCT-116 colon) was > 1000 µM, the TGI (MDA-N) was > 1000 µM and the TGI (SNB-75 CNS) was > 1000 µM. For the same compound, the TGI (OVCAR-8 ovarian) was > 1000 µM, the TGI (OVCAR-5 ovarian) was > 1000 µM and the TGI (HCC-2998 colon) was > 1000 µM. The TGI (EKVX NSCLC) was > 1000 µM, the TGI (HS 578T breast) was > 1000 µM and the TGI (SF-268 CNS) was > 1000 µM. For the same compound, the TGI (HCT-15 colon) was > 1000 µM, the TGI (MDA-MB-435) was > 1000 µM and the TGI (BT-549 breast) was > 1000 µM. The TGI (KM12 colon) was > 1000 µM, the TGI (K-562 leukemia) was > 1000 µM and the TGI (SF-295 CNS) was > 1000 µM. The TGI (HT29 colon) was 325 µM, the TGI (SW-620 colon) was > 1000 µM and the TGI (SK-OV-3 ovarian) was > 1000 µM. For the same compound, the TGI (MALME-3M melanoma) was > 1000 µM, the TGI (NCI-H226 lung) was 429 µM and the TGI (COLO 205 colon) was 459 µM. The TGI (UACC-257 melanoma) was 496 µM, the TGI (UO-31 renal) was > 1000 µM and the TGI (LOX IMVI melanoma) was 329 µM. For the same compound, the TGI (NCI-H23 lung) was > 1000 µM, the TGI (HOP-92 NSCLC) was 650 µM and the TGI (HL-60(TB) leukemia) was > 1000 µM. The TGI (SK-MEL-5 melanoma) was 294 µM and the TGI (MOLT-4 leukemia) was 591 µM.
